The IC50 is the point on the concentration scale where inhibition reaches its midpoint. Higher therefore signals weaker potency.

For seven compounds, IC50 results are on record in US20220340875A1, “METHODS OF CULTURING AND/OR EXPANDING STEM CELLS AND/OR LINEAGE COMMITTED PROGENITOR CELLS USING AMIDO COMPOUNDS” (IDEAYA BIOSCIENCES, INC., priority 2018, published 2022).

The assay has as its target T1, hAhR (Homo sapiens, UniProt P35869).
T1 construct: Stably integrated DRE-luciferase cell lines were generated by transducing the both cell lines with Cignal XRE luciferase reporter (Qiagen) lentiviral particles; endogenous in cells
T1 sequence (P35869 11-848): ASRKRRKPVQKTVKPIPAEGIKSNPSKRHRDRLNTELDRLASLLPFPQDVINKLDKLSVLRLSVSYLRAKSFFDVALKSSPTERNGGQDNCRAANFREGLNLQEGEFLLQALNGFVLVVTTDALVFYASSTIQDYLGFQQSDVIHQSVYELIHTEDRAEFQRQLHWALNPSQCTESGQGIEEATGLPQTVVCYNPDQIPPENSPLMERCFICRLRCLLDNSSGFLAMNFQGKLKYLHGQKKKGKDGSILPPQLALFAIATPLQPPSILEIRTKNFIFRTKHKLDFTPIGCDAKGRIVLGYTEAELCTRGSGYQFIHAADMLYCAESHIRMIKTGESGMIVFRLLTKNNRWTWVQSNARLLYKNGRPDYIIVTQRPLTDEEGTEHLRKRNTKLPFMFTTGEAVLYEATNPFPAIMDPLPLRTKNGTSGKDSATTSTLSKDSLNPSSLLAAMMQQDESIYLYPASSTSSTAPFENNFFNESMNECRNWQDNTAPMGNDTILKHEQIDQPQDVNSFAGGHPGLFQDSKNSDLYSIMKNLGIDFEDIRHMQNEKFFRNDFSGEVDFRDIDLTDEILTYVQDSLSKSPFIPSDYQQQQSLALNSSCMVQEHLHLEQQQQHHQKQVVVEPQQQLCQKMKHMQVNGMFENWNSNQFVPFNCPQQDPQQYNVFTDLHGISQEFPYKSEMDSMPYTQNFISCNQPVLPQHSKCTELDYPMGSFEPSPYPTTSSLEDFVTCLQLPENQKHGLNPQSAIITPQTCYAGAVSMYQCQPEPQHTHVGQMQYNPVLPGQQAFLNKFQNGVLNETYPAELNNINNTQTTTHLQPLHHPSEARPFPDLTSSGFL
The assay can be described thus: AhR DRE-luciferase reporter transcriptional assay, antagonist mode (TCDD-induced). The conditions noted are these: HEPG2 DRE-Luc cells, 3 nM TCDD, 24 hour incubation, relative IC50. Type of assay: cell-based. Put shortly: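 HepG2 cells carrying a stably integrated DRE-luciferase reporter, in OptiMEM with 0.5% FBS; semi-log compound doses added with 3 nM TCDD, 24 h incubation, firefly luciferase read-out. Percent maximal activity normalised between vehicle ± TCDD; relative IC50 taken as half-reduction between curve plateaus.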
In general terms: A reporter such as luciferase makes a cellular process visible.

Compound `Cc1cc(-c2ncc3cc(C(F)(F)F)ccc3n2)ccc1N1CCNC1=O` [Example 141, 1-(2-methyl-4-(6-(trifluoromethyl)quinazolin-2-yl)phenyl)imidazolidin-2-one] showed an IC50 of under 200 nM.

`Cc1cc(-c2ccc3cc(F)cc(Cl)c3n2)ccc1NC(=O)c1ccnn1C` [Example 049, N-(4-(8-chloro-6-fluoroquinolin-2-yl)-2-methylphenyl)-1-methyl-1H-pyrazole-5-carboxamide] yielded an IC50 of 200 to 500 nM.

Turning to `Cc1cc(C(=O)N(C)c2ccc(-c3ncc4cc(C(F)(F)F)ccc4n3)cc2C)c(C)cn1` [Example 126, N,2,5-trimethyl-N-(2-methyl-4-(6-(trifluoromethyl)quinazolin-2-yl)phenyl)isonicotinamide], the IC50 was under 200 nM.

`COc1cc(C(=O)Nc2ccc(-c3ncc4cc(C(F)(F)F)ccc4n3)cc2C)ccn1` [Example 142, 2-methoxy-N-(2-methyl-4-(6-(trifluoromethyl)quinazolin-2-yl)phenyl)isonicotinamide] showed an IC50 of under 200 nM.

With `Cc1cc(-c2ncc3nc(C(F)(F)F)cc(C)c3n2)ccc1N(C)C(=O)c1ccnn1CC(N)=O` [Example 171, 1-(2-amino-2-oxoethyl)-N-methyl-N-(2-methyl-4-(8-methyl-6-(trifluoromethyl)pyrido[3,2-d]pyrimidin-2-yl)phenyl)-1H-pyrazole-5-carboxamide], the IC50 lay within 200 to 500 nM.

For `CCN(C(=O)c1ccnn1C)c1ccc(-c2ccc3cc(C(F)(F)F)ccc3n2)cc1C` [Example 004, N-Ethyl-1-methyl-N-(2-methyl-4-(6-(trifluoromethyl)quinolin-2-yl)phenyl)-1H-pyrazole-5-carboxamide], the IC50 is under 200 nM.

Compound `Cc1cc(-c2ncc3cc(C(F)(F)F)ccc3n2)ccc1N(C)C(=O)c1ncccc1C` [Example 118, N,3-dimethyl-N-(2-methyl-4-(6-(trifluoromethyl)quinazolin-2-yl)phenyl)picolinamide] yielded an IC50 of 200 to 500 nM.
